In patent US20260007741A1, “LIPID NANOPARTICLES FOR DELIVERY OF NUCLEIC ACIDS AND VACCINES” (priority 2024, published 2026):
Like-named read-outs stand apart in the source and are kept apart here.

Tests used:
TLR7/8 = test: In vivo inflammatory profile of UUGU oligoribonucleotides in LNP formulations using different ICLs (Example 28; serum and dLNs); design: species or system mice; conditions: 1 ug UUGU dose
Description: Blood and dLNs (pooled iliac, popliteal and inguinal LNs) were harvested 6 hrs post-injection. […] No. 740622). LNs were weighed prior to lysis, and analyte concentrations were converted from pg/mL to pg/mg of tissue mass. […] The analyte concentrations in the blood serum are reported in Table 68 and the mean fold changes over vehicle treatment are shown in Table 69. The analyte concentrations in the dLNs are reported in Table 70 and the mean fold changes over vehicle treatment are shown in Table 71. The primary aim of this study was to examine the effect of various ionizable cationic lipids (ICLs) on the delivery of a UUGU oligoribonucleotide to TLR7/8 located intracellularly in endolysosomal compartments. We also sought to determine whether PS-targeting of LNPs influenced activity. […] UUGU oligos were encapsulated in LNPs formulated with KC-OA family ICLs, AKG-UO-DM2, DODMA, or DODAP. We also tested the ALC-0315 and SM-102 LNP formulations. The effect of PS targeting on biological activity was also assessed using either DOPS or DPPS formats.

[1] = Apparent solubility of phosphatidylserine salts in ethanol (shake flask); assay type: physicochemical; conditions: for Solubility, mM phosphatidylserine: 100% ethanol at room temperature, 24 hours, average±SD (N=3)
Description: Apparent solubilities of phosphatidylserine salts in ethanol were determined by shake flask technique. Sodium and ammonium salts of phosphatidylserines in the powder form were obtained from Avanti Polar Lipids (Alabama, USA). Aliquots of phosphatidylserine salt powder were placed in 12×75 borosilicate glass tubes in triplicate. Three mL of 200 proof ethanol (catalog number E-7023, MilliporeSigma, USA) were added, the tubes were closed with polyethylene snap caps, agitated using vortex mixer for 10-15 s to obtain uniform suspensions, and placed in a horizontal position on a rocking platform at room temperature (20-22° C.) overnight. The ambient temperature at the end of incubation was 20.4-20.9° C. After 24 hours incubation, the suspensions were visually checked for the presence of a solid phase, allowed to settle under gravity, and the supernatant solutions were passed through a 0.2-μm PTFE syringe membrane filters. The first 0.5 ml of the filtrate was discarded, the next 1 ml was collected, and phosphatidylserine in the filtrates was quantified by phospholipid phosphate assay as follows: 20 μL aliquots of the filtrate were taken in triplicate into glass tubes, ethanol was evaporated in a stream of argon at 70° C., and the residue was digested in a mixture of 60 μL concentrated sulfuric acid and 20 μL 30% hydrogen peroxide for 10 min at 180-190° C. The digested samples were diluted with 1 mL of deionized water, 20 μL of 10% sodium sulfite was added to destroy any residual peroxide, and the samples were incubated on a boiling water bath for 15 min to hydrolyze any condensed phosphate species. The samples were chilled down to room temperature, mixed with 0.2 mL of 2% (w/w) ammonium molybdate solution and 20 μL of 10% (w/w) ascorbic acid solution, incubated on a boiling water bath for 10 min, and chilled down in a water bath at room temperature. The phosphate concentration was determined from the optical density of the formed blue phosphomolybdic acid at 825 nm using five-point standard curve from concurrently run standards prepared from the NIST-traceable commercial phosphate standard solution diluted to cover the range of 0-2 mM phosphate (coefficient of determination R^2 >0.9999). Solubility of phosphatidylserine salts was expressed in molarity units of phosphatidylserine (Table 40). The data are average±SD (N=3).

human dendritic cells = test: Transfection efficiency of mCherry mRNA LNPs in human dendritic cells (flow cytometry); conditions: human dendritic cells (Example 9)
Description: Four days prior to transfection, monocytes were isolated using CD14 isolation kit (StemCell) from PBMCs of healthy donors. […] The monocytes were cultured with IL-4 (R&D 1000 IU/mL) and GM-CSF (R&D, 800 IU/mL) in a 6 well dish at 1×10^6 cells/mL at 37° C., 5% CO2. After 4 days the immature DCs were harvested and seeded in a 96 well round bottom plate at 50,000 cells/well. LNPs were thawed by placing the vials in a 37° C. water bath for 30 seconds, or until the sample had almost fully melted. The vials were immediately placed on ice until use. The LNPs were added to final concentrations of 1 μg/ml and 0.1 μg/mL mRNA. For 1 μg/mL treatment, LNPs were added directly to each well then wells were mixed by pipetting. For 0.1 μg/mL treatment, LNPs were diluted 1:10 in complete media then added to each well and mixed by pipetting. After 4 h a maturation cytokine cocktail was added directly to each well consisting of TNF-α (R&D, 10 ng/mL), IL-1b (R&D, 2 ng/mL), IL-6 (R&D, 1000 IU/mL), and PGE1 (R&D, 1 μg/mL). After 24 h, the cells were centrifuged, washed in PBS and analyzed by flow cytometry for mCherry fluorescence. Gating analysis was performed using CytExpert software.

[2] = for % of main lipid peak to To: 1% H2O2/100 μM Fe(III)Cl, 37° C.
MutuDC1940 cells = test: Transfection efficiency of mCherry mRNA LNPs in murine dendritic cells (flow cytometry); assay type: cell-based; conditions: for mRNA endosomal escape and translation / mRNA transfection: MutuDC1940 cells, mCherry mRNA LNPs; for transfection activity when incorporated into LNPs: murine dendritic cells (Example 8)
Description: • 1. MutuDC1940 cells (Applied Biological Materials, T0528) were grown according to supplier's instructions in T75 flasks. They were plated at 180,000 cells/well into 24-well plate one day prior to transfection. • 2. LNPs were added in triplicate to each well at the desired mRNA concentration (e.g. 1 μg/mL) in 1 mL media and after 24 h the cells were washed once with DPBS (VWR 02-0119-1000). • 3. 0.2 mL of DPBS (plus 5 mM EDTA, pH 7.4) was then added to facilitate detachment. • 4. The cells were placed at 37° C. for 3 min, until detached. • 5. 0.5 ml DPBS added to each well and the liquid transferred to a flow cytometry tube (Falcon 5 mL #352054). • 6. The tube was centrifuged at 1100 rpm for 3-5 min and the liquid poured off. • 7. 100 μL of Zombie Violet (Biolegend) (diluted 1:500 in PBS) was added to each tube. • 8. The tubes were gently tapped to resuspend cells and placed in the dark for 15 min at RT. • 9. To the cells 0.5 mL of (paraformaldehyde 4% in PBS:DPBS 1:1) was added and the cells flicked gently to resuspend and put on ice for 30 min. Another 2 ml PBS was added. • 10. The cells were pelleted as above and resuspended in 0.5 mL DPBS with 5% BSA and placed in the fridge until needed.
Cells suspensions were analyzed by an Attune NxT flow cytometer using the VL1 and YL2 for live/dead and mCherry fluorescence signals respectively. Gating analysis was performed on FloJo software.

[3] = Semple et al., (2010) Nature Biotech. 28 (2) 172-176; cited from earlier work
TLR9 = test: In vivo inflammatory profile of CpG-ODN 1018 in LNP formulations with various ICLs (Example 27; serum and dLNs); design: species or system BALB/c mice; conditions: 1 μg dose CpG

CCCCCCCC/C=C\CCCCCCCCOC[C@H](CN(C)C)OCCCCCCCC/C=C\CCCCCCCC [DODMA, reference compound]
induction of a proinflammatory signature by UUGU LNPs by ICL (TLR7/8): most efficient

CCCCCCCCCCCCCCCC(=O)OC[C@H](COP(=O)(O)OC[C@H](N)C(=O)[O-])OC(=O)CCCCCCCCCCCCCCC.[Na+] [DPPS sodium]
Solubility, mM phosphatidylserine [1]: 0.201 ± 0.004 mM

CCCCCCCCCCCCCCCCCC(=O)OC[C@H](COP(=O)(O)OC[C@H](N)C(=O)O)OC(=O)CCCCCCCCCCCCCCCCC.N [DSPS ammonium]
Solubility, mM phosphatidylserine [1]: 0.034 ± 0.004 mM

CCCCCC/C=C\CCCCCCCCC1(CCCCCCCC/C=C\CCCCCC)OC[C@H](CCCN(C)C)O1 [KC3-PA, 3-((S)-2,2-di((Z)-hexadec-9-en-1-yl)-1,3-dioxolan-4-yl)-N,N-dimethylpropan-1-amine]
transfection activity when incorporated into LNPs (human dendritic cells): highest activity
% of main lipid peak to To ([2]; 24 h): 62.7 ± 0.1%
% of main lipid peak to To ([2]; 48 h): 59.2 ± 0.8%
% of main lipid peak to To ([2]; 72 h): 60.2 ± 0.6%

CCCCCCCC/C=C\CCCCCCCCC1(CCCCCCCC/C=C\CCCCCCCC)OCC(CCCCN(C)C)O1 (racemic) [KC4-OA, 4-rac-2,2-di((Z)-octadec-9-en-1-yl)-1,3-dioxolan-4-yl)-N,N-dimethylbutan-1-amine]
mRNA endosomal escape and translation / mRNA transfection (MutuDC1940 cells): relatively efficient

CCCCCCCCCCCCCCCCCC(=O)OC[C@H](COP(=O)(O)OC[C@H](N)C(=O)[O-])OC(=O)CCCCCCCCCCCCCCCCC.[Na+] [DSPS sodium]
Solubility, mM phosphatidylserine [1]: 0.111 ± 0.009 mM

CCCCCCCC/C=C\CCCCCCCC1(CCCCCCC/C=C\CCCCCCCC)OC[C@H](CCCN(C)C)O1 [KC3-17 (C8:1), 3-((S)-2,2-di((Z)-heptadec-8-en-1-yl)-1,3-dioxolan-4-yl)-N,N-dimethylpropan-1-amine]
transfection activity when incorporated into LNPs (MutuDC1940 cells): highest activity
transfection activity when incorporated into LNPs (human dendritic cells): highest activity
% of main lipid peak to To ([2]; 24 h): 66.1 ± 0.6%
% of main lipid peak to To ([2]; 48 h): 58.4 ± 1.5%
% of main lipid peak to To ([2]; 72 h): 45.9 ± 4.7%

CCCCCCCC/C=C\CCCCCCCCC1(CCCCCCCC/C=C\CCCCCCCC)OC[C@H](CCCN(C)C)O1 [KC3-OA, 3-((S)-2,2-di((Z)-octadec-9-en-1-yl)-1,3-dioxolan-4-yl)-N,N-dimethylpropan-1-amine]
mRNA endosomal escape and translation / mRNA transfection (MutuDC1940 cells): relatively efficient
transfection activity when incorporated into LNPs (MutuDC1940 cells): highest activity
induction of a proinflammatory signature by UUGU LNPs by ICL (TLR7/8): most efficient
transfection activity when incorporated into LNPs (human dendritic cells): highest activity
% of main lipid peak to To ([2]; 24 h): 88.9 ± 0.5%
% of main lipid peak to To ([2]; 48 h): 84.6 ± 0.9%
% of main lipid peak to To ([2]; 72 h): 79.0 ± 0.1%

CCCCCCCCCCCCCCCC(=O)OC[C@H](COP(=O)(O)OC[C@H](N)C(=O)O)OC(=O)CCCCCCCCCCCCCCC.N [DPPS ammonium]
ethanol solubility compared to ammonium salt of DSPS or the sodium salts [1]: several-fold higher
Solubility, mM phosphatidylserine [1]: 0.865 ± 0.060 mM

CCCCC/C=C\C/C=C\CCCCCCCCC1(CCCCCCCC/C=C\C/C=C\CCCCC)OCC(CCCN(C)C)O1 (stereo not drawn) [KC3, reference compound]
degradation relative to other cationic lipids under the forced oxidation with H2O2 [2]: fastest degradation
% of main lipid peak to To ([2]; 24 h): 11.2 ± 1.0%
% of main lipid peak to To ([2]; 48 h): 10.5 ± 0.5%
% of main lipid peak to To ([2]; 72 h): 0 ± 0%

CCCCCCCC/C=C\CCCCCCCCC1(CCCCCCCC/C=C\CCCCCCCC)OC[C@H](CCN(C)C)O1 [KC2-OA, 2-((S)-2,2-di((Z)-octadec-9-en-1-yl)-1,3-dioxolan-4-yl)-N,N-dimethylethan-1-amine]
mRNA endosomal escape and translation / mRNA transfection (MutuDC1940 cells): relatively efficient

CCCCCCCC/C=C\CCCCCCCC(=O)OC[C@H](CCCN(C)C)OC(=O)CCCCCCC/C=C\CCCCCCCC [AKG-OA-DM3, (S)-5-(dimethylamino)pentane-1,2-diyl dioleate]
mRNA endosomal escape and translation / mRNA transfection (MutuDC1940 cells): relatively poor for mRNA transfection

CCCCCCCCCCCCCCCCCC1(CCCCCCCCCCCCCCCCC)OC[C@H](CCCN(C)C)O1 [KC3-17, (S)-3-(2,2-diheptadecyl-1,3-dioxolan-4-yl)-N,N-dimethylpropan-1-amine]
transfection activity when incorporated into LNPs (MutuDC1940 cells): completely inactive
% of main lipid peak to To ([2]; 24 h): 92.9 ± 0.3%
% of main lipid peak to To ([2]; 48 h): 91.8 ± 1.2%
% of main lipid peak to To ([2]; 72 h): 90.2 ± 1.2%

CCCCC/C=C\C/C=C\CCCCCCCCC1(CCCCCCCC/C=C\C/C=C\CCCCC)OCC(CCN(C)C)O1 (stereo not drawn) [KC2]
activity of KC2 compared to KC3 [3]: 6 fold

CCCCC/C=C\CCCC/C=C\CCCCCC1(CCCCC/C=C\CCCC/C=C\CCCCC)OC[C@H](CCCN(C)C)O1 [KC3-01, 3-((S)-2,2-di((6Z,12Z)-octadeca-6,12-dien-1-yl)-1,3-dioxolan-4-yl)-N,N-dimethylpropan-1-amine]
transfection activity when incorporated into LNPs (human dendritic cells): highest activity

CCCCCCCC/C=C\CCCCCCCC(=O)OC[C@H](CCN(C)C)OC(=O)CCCCCCC/C=C\CCCCCCCC [AKG-OA-DM2, (S)-4-(dimethylamino)butane-1,2-diyl dioleate]
mRNA endosomal escape and translation / mRNA transfection (MutuDC1940 cells): relatively poor for mRNA transfection
levels of IL-12p70 and type I IFN-α in the blood and dLNs (TLR9): highest levels
induction of a proinflammatory signature by UUGU LNPs by ICL (TLR7/8): most potent LNP adjuvant formulation
induction of a proinflammatory signature by UUGU LNPs by ICL (TLR7/8; listed as AKG-UO-DM2): most efficient
